The assay addresses T1, full-length SHP2 (1-528) (Homo sapiens, UniProt Q06124).
T1 construct: The SHP2 protein (Aa 1–528) was cloned into a pET-21a(+) vector; His; made in house; host or cells: E. coli BL21(DE3)
T1 sequence (Q06124 1-528): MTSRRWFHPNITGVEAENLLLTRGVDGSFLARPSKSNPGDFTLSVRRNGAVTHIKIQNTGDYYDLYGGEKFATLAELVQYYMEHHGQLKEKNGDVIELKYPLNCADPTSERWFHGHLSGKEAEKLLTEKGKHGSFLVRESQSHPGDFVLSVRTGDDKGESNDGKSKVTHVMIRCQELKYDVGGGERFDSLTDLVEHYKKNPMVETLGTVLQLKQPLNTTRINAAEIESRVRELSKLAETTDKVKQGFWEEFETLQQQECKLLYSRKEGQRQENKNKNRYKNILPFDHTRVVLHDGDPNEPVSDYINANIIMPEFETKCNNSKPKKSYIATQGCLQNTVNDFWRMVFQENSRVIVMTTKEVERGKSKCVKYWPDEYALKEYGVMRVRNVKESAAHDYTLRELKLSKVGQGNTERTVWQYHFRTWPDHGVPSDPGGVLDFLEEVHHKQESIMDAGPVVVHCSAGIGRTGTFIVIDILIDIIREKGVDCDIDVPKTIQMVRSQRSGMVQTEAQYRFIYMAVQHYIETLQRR
The assay is described as follows: SHP2 allosteric inhibition assay (DiFMUP substrate). The assay is classed as biochemical. The procedure:
The SHP2 protein (Aa 1–528) was cloned into a pET-21a(+) vector. Bacterial BL21(DE3) (Novagen) was used as an expression host, and the induction of protein expression was carried out in LB media with 1 mM IPTG at 18 °C overnight. Cell pellets were stored at −80 °C for subsequent protein purification. Protein purification was conducted at 4 °C. Frozen cell pellets were lysed by sonication in 40 mL cold lysis buffer (50 mM Tris-HCl, pH 8.0, 150 mM NaCl, 5 mM imidazole, and 1 mM PMSF) per liter cell pellet. Cell lysates were clarified by centrifuging for 15 min at 6000 rpm. The supernatant was incubated with HisPur Ni-NTA resin (Thermo Scientific, Waltham, MA, USA) for 2 h, and then packed onto a column and washed with 50 resin volume of buffer A (50 mM Tris-HCl, pH 8.0, 500 mM NaCl, 5 mM imidazole). The HIS-tagged proteins were eluted with Buffer B (50 mM Tris-HCl, pH = 8.0, 500 mM NaCl, 300 mM imidazole,). Pooled HIS-protein-containing fractions were concentrated, loaded onto a HiLoad 26/600 Superdex 75 column (GE Healthcare Biosciences, Piscataway, NJ, USA), and eluted with storage buffer (50 mM Tris-HCl, pH 8.0, 150 mM NaCl, 1 mM DTT, 10% glycerol). Proteins used for inhibition assays were purified using Ni-NTA resin (Qiagen, Hilden, Germany) followed by size exclusion column chromatography (ÄKTA pure, Cytiva, Marlborough, MA, USA) and the purity was determined to be >95% by SDS-PAGE and Coomassie staining. The protein was aliquoted and stored at −80 °C.
The catalytic activity of SHP2 (1-528) was assayed with 6,8-Difluoro-4-Methylumbelliferyl Phosphate (DiFMUP, Invitrogen, cat# D6567) as a substrate in 3,3-Dimethylglutaric acid (DMG) buffer (50 mM DMG, pH 7.0, 1 mM EDTA, 18 mM NaCl, 0.01% Triton X-100) at 25 °C. To determine the IC50 values, the assays were performed in 96-well plates (Corning Costar 3915). Series diluted compounds were incubated with 0.5 nM of SHP2 and 0.5 μM of peptide IRS1_pY1172(dPEG8)pY1222 (sequence H2N-LN(pY)IDLDLV(dPEG8)LST(pY)ASINFQK-amide). After 30 min incubation at room temperature, the substrate DiFMUP was added to the reaction (200 μM final concentration, total reaction volume is […]) and incubated at 25 °C for 10 min. The reaction was then quenched by adding 40 μL of 160 μM bpV(Phen) (Sigma–Aldrich, cat# SML0889) solution. The fluorescence signal was monitored with a CLARIOstar Plus Microplate Spectrophotometer (BMG Labtech) using excitation and emission wavelengths of 340 and 450 nm, respectively. The inhibitordose-response curves were analyzed using normalized IC50 regression curve fitting with control-based normalization. Data were fitted using Prism GraphPad 9.2.0.

SMILES strings stand for the structures.

In the case of `Cc1ncsc1-c1ccc([C@H](C)NC(=O)[C@@H]2C[C@@H](O)CN2C(=O)[C@@H](NC(=O)CCCCCCCCCN2CCN(C(=O)CCCCCC3(CN)CCN(c4cnc(Sc5cccc(Cl)c5Cl)c(N)n4)CC3)CC2)C(C)(C)C)cc1` [P9, (2S,4R)-1-((S)-2-(10-(4-(6-(1-(6-amino-5-((2,3-dichlorophenyl)thio)pyrazin-2-yl)-4-(aminomethyl)piperidin-4-yl)hexanoyl)piperazin-1-yl)decanamido)-3,3-dimethylbutanoyl)-4-hydroxy-N-((S)-1-(4-(4-methylthiazol-5-yl)phenyl)ethyl)pyrrolidine-2-carboxamide], the “Fold selectivity (SHP2)” value (Table S3, relative to SHP2) came out at 1. The half-inhibitory concentration (IC50) (full length SHP2, enzymatic assay) is 95 ± 3.4 nM.

The values are drawn from publication PMC10574094, “Discovery of a SHP2 Degrader with In Vivo Anti-Tumor Activity” (Molecules, 2023).
